According to patent US12167742B2, “Nutritional composition comprising 6′SL and LNT in combination to improve the gastrointestinal barrier function” (SOCIETE DES PRODUITS NESTLE S.A., priority 2018, dated 2024):
One block for each compound: values may come before it.

Target: GPR35 (Homo sapiens, UniProt Q9HC97)
Assay: PathHunter β-Arrestin assay, activation of GPR35 expressed in cultured cells (DiscoverX)
Assay type: cell-based
Conditions: for EC50: dose-response by 3× dilutions from 10 mM, duplicate, β-arrestin recruitment; for activation of GPR35: Example 2, HMO screening, highest concentration tested 10 mM
Procedure: Six human milk oligosaccharides (LNnT, LNT, 2′FL, diFL, 6′SL and 3′SL) were screened for their ability to activate the GPR35 receptor in an in vitro assay. The screening was conducted by DiscoverX (Fremont, Ca, USA) using the PathHunter β-Arresin assay. This assay monitors the activation of GPR35 expressed in cultured cells, using Enzyme Fragment Complementation with β-galactosidase (β-Gal) as the functional reporter. […] EA is fused to β-Arrestin and PK is fused to GPR35. When the GPR35 is activated and β-Arrestin is recruited to the receptor, PK and EA complementation occurs, restoring β-Gal activity, which is measured using chemiluminescent Detection Reagents.
The GPR35 cell line was expanded from frozen stocks and cultured according to standard procedures. Cells were seeded in a total volume of 20 μL into white walled, 384-well microplates and incubated at 37° C. for the appropriate time prior to testing. All testing was done in duplicate.
HMO samples were shipped to DiscoverX as concentrated stocks in Phosphate Buffered saline. On the test day, a 5× compound working intermediate was prepared in PBS. An amount of 5 μL of 5× sample was added to cells and incubated at room temperature for 3 to 5 hours.
Assay signal was generated through a single addition of 12.5 μL (50% v/v) of PathHunter Detection reagent cocktail, followed by one-hour incubation at room temperature. Microplates were read following signal generation with a PerkinElmer Envision™ instrument for chemiluminescent signal detection.
Zaprinast (which is known to be an activator of GPR35) was used as positive control.
Percentage activity was calculated using the following formula: % Activity=100%×(mean RLU of test sample−mean RLU of vehicle control)/(mean MAX control ligand−mean RLU of vehicle control).
Dose-responses were generated by iterative 3× dilutions of the highest concentration tested (10 mM).
The samples were diluted in 1×PBS (pH˜7) at 5× concentrations and sent to DiscoverX. The GPR35 activation assay was performed as described in Example 2.

GPR35, sequence (Q9HC97 whole entry): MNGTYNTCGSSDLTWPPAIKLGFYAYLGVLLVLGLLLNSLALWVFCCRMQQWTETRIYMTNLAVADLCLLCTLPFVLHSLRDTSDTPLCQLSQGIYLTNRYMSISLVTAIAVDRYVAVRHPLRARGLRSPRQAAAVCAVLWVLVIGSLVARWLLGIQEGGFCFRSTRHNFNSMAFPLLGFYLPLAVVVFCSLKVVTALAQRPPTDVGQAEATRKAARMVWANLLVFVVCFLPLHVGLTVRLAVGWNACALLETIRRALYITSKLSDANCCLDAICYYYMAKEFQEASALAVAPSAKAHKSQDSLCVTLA

activation of GPR35: No activation
Compound: CC(=O)N[C@H]1[C@H](O[C@H]2[C@@H](O)[C@@H](CO)O[C@@H](O[C@H]3[C@H](O)[C@@H](O)C(O)O[C@@H]3CO)[C@@H]2O)O[C@H](CO)[C@@H](O[C@@H]2O[C@H](CO)[C@H](O)[C@H](O)[C@H]2O)[C@@H]1O (mixture of isomers) [LNnT, lacto-N-neotetraose]

activation of GPR35: No activation
Compound: C[C@@H]1O[C@@H](O[C@H]2[C@H](O[C@H]3[C@H](O[C@@H]4O[C@@H](C)[C@@H](O)[C@@H](O)[C@@H]4O)[C@@H](O)C(O)O[C@@H]3CO)O[C@H](CO)[C@H](O)[C@@H]2O)[C@@H](O)[C@H](O)[C@@H]1O (some centres unmarked) [diFL, difucosyllactose]

Continued, compound first:

Compound: CC(=O)N[C@H]1[C@H]([C@H](O)[C@H](O)CO)O[C@@](OC[C@H]2O[C@@H](O[C@H]3[C@H](O)[C@@H](O)[C@H](O)O[C@@H]3CO)[C@H](O)[C@@H](O)[C@H]2O)(C(=O)O)C[C@@H]1O [6′SL, 6′-sialyllactose]
EC50: 6.5 mM

Compound: CC(=O)N[C@H]1[C@H]([C@H](O)[C@H](O)CO)O[C@@](O[C@H]2[C@@H](O)[C@@H](CO)O[C@@H](O[C@H]3[C@H](O)[C@@H](O)C(O)O[C@@H]3CO)[C@@H]2O)(C(=O)O)C[C@@H]1O (some centres unmarked) [3′SL, 3′ sialyllactose]
activation of GPR35: No activation

Compound: CC(=O)N[C@H]1[C@H](O[C@H]2[C@@H](O)[C@@H](CO)O[C@@H](O[C@H]3[C@H](O)[C@@H](O)C(O)O[C@@H]3CO)[C@@H]2O)O[C@H](CO)[C@@H](O)[C@@H]1O[C@@H]1O[C@H](CO)[C@H](O)[C@H](O)[C@H]1O (some centres unmarked) [LNT, lacto-N-tetraose]
EC50: 4.5 mM
